Measurements as given in the supplement of paper PMC10307832.

Tests used:
Test in all cases: relative viability (nuclei count vs DMSO), 5 days (fraction); higher = more cells survive
IPA-3 + Tozasertib = compound: C1=CC=C2C(=C1)C=CC(=C2SSC3=C(C=CC4=CC=CC=C43)O)O [IPA-3] + Cc1cc(Nc2cc(N3CCN(C)CC3)nc(Sc3ccc(NC(=O)C4CC4)cc3)n2)n[nH]1 [Tozasertib] (partner 0.1 µM)
How it was run: (§1)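 Dosing by pin tool came one day after lung cancer cell lines were seeded in 1536-well plates, using either one drug or a fixed anchor-drug dose plus five library-drug doses (not always all listed) in √10 steps. After 5 days, nuclei were counted on 4× images. Relative viability is treated-well nuclei count divided by vehicle-well nuclei count, and values are medians of duplicate plates.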

RAF265 + OSI-027 = compound: Cn1c(Nc2ccc(C(F)(F)F)cc2)nc2cc(Oc3ccnc(-c4ncc(C(F)(F)F)[nH]4)c3)ccc21 [RAF265] + COc1cccc2cc(-c3nc([C@H]4CC[C@H](C(=O)O)CC4)n4ncnc(N)c34)[nH]c12 [OSI-027] (partner 0.5 µM)
How it was run: as §1

RAF265 + Alpelisib = compound: Cn1c(Nc2ccc(C(F)(F)F)cc2)nc2cc(Oc3ccnc(-c4ncc(C(F)(F)F)[nH]4)c3)ccc21 [RAF265] + Cc1nc(NC(=O)N2CCC[C@H]2C(N)=O)sc1-c1ccnc(C(C)(C)C(F)(F)F)c1 [Alpelisib] (partner 2 µM)
How it was run: as §1

RAF265 + Vorinostat = compound: Cn1c(Nc2ccc(C(F)(F)F)cc2)nc2cc(Oc3ccnc(-c4ncc(C(F)(F)F)[nH]4)c3)ccc21 [RAF265] + O=C(CCCCCCC(=O)Nc1ccccc1)NO [Vorinostat] (partner 1 µM)
How it was run: as §1

Cell Line: UMC-11
- relative viability (IPA-3 + Tozasertib; first compound 0.2 µM): 0.202
- relative viability (IPA-3 + Tozasertib; first compound 0.6325 µM): 0.205
- relative viability (IPA-3 + Tozasertib; first compound 2 µM): 0.215
- relative viability (IPA-3 + Tozasertib; first compound 6.325 µM): 0.224
- relative viability (IPA-3 + Tozasertib; first compound 20 µM): 0.225
- relative viability (RAF265 + OSI-027; first compound 0.01 µM): 0.491
- relative viability (RAF265 + OSI-027; first compound 0.03162 µM): 0.48
- relative viability (RAF265 + OSI-027; first compound 0.1 µM): 0.464
- relative viability (RAF265 + OSI-027; first compound 0.3162 µM): 0.457
- relative viability (RAF265 + OSI-027; first compound 1 µM): 0.378
- relative viability (RAF265 + Alpelisib; first compound 0.01 µM): 0.972
- relative viability (RAF265 + Alpelisib; first compound 0.03162 µM): 0.981
- relative viability (RAF265 + Alpelisib; first compound 0.1 µM): 0.969
- relative viability (RAF265 + Alpelisib; first compound 0.3162 µM): 1.14
- relative viability (RAF265 + Alpelisib; first compound 1 µM): 0.937
- relative viability (RAF265 + Vorinostat; first compound 0.01 µM): 0.458
- relative viability (RAF265 + Vorinostat; first compound 0.03162 µM): 0.4
- relative viability (RAF265 + Vorinostat; first compound 0.1 µM): 0.343
- relative viability (RAF265 + Vorinostat; first compound 0.3162 µM): 0.357
- relative viability (RAF265 + Vorinostat; first compound 1 µM): 0.32
